# Laboratory results as given in ChEMBL document CHEMBL4732094, “Synthesis of some new benzoxazole derivatives and investigation of their anticancer activities” (Eur J Med Chem, 2021).
# What was measured:
# HT-29 = experiment: Cytotoxicity against human HT-29 cells assessed as cell viability measured after 24 hrs by MTT assay; type: functional, cell-based; details: HT-29, 24 h
# [1] = Selectivity index, ratio of IC50 for cytotoxicity against mouse NIH3T3 cells to IC50 for cytotoxicity against human MCF7 cells; type: toxicity, cell-based; details: NIH3T3 cells versus MCF7 cells, read-out: Ratio IC50
# NIH3T3 = experiment: Cytotoxicity against mouse NIH3T3 cells assessed as cell viability measured after 24 hrs by MTT assay; type: cell-based; details: NIH3T3, 24 h
# [2] = Selectivity index, ratio of IC50 for cytotoxicity against mouse NIH3T3 cells to IC50 for cytotoxicity against human HT-29 cells; type: toxicity, cell-based; details: NIH3T3 cells versus HT-29 cells, read-out: Ratio IC50
# [3] = Selectivity index, ratio of IC50 for cytotoxicity against mouse NIH3T3 cells to IC50 for cytotoxicity against human A549 cells; type: toxicity, cell-based; details: NIH3T3 cells versus A549 cells, read-out: Ratio IC50
# HepG2 [4] = experiment: Cytotoxicity against human HepG2 cells assessed as cell viability measured after 24 hrs by MTT assay; type: functional, cell-based; details: HepG2, 24 h
# A549 = experiment: Cytotoxicity against human A549 cells assessed as cell viability measured after 24 hrs by MTT assay; type: functional, cell-based; details: A549, 24 h
# HepG2 [5] = experiment: Induction of apoptosis in human HepG2 cells assessed as early apoptotic cells at IC50 concentration measured after 24 hrs by Annexin V-FITC/PI staining based flow cytometry method (reference value: 0.9%); type: functional
# MCF7 = experiment: Cytotoxicity against human MCF7 cells assessed as cell viability measured after 24 hrs by MTT assay; type: functional, cell-based; details: MCF7, 24 h
# HepG2 [6] = experiment: Induction of apoptosis in human HepG2 cells assessed as viable cells at IC50 concentration measured after 24 hrs by Annexin V-FITC/PI staining based flow cytometry method (reference value: 87.8%); type: functional
# [7] = Selectivity index, ratio of IC50 for cytotoxicity against mouse NIH3T3 cells to IC50 for cytotoxicity against human HepG2 cells; type: toxicity, cell-based; details: NIH3T3 cells versus HepG2 cells, read-out: Ratio IC50
# HepG2 [8] = experiment: Inhibition of DNA synthesis in human HepG2 cells assessed as reduction in cell proliferation measured after 24 to 48 hrs by BrdU proliferation assay; type: functional, cell-based; details: time 24-48 hrs
# HepG2 [9] = experiment: Induction of apoptosis in human HepG2 cells assessed as late apoptotic cells at IC50 concentration measured after 24 hrs by Annexin V-FITC/PI staining based flow cytometry method (reference value: 8.7%); type: functional
# HepG2 [10] = experiment: Induction of apoptosis in human HepG2 cells assessed as necrotic cells at IC50 concentration measured after 24 hrs by Annexin V-FITC/PI staining based flow cytometry method (reference value: 4.6%); type: functional
# [11] = Selectivity index, ratio of IC50 for cytotoxicity against mouse NIH3T3 cells to IC50 for cytotoxicity against rat C6 cells; type: toxicity, cell-based; details: NIH3T3 cells versus C6 cells, read-out: Ratio IC50
# C6 = experiment: Cytotoxicity against rat C6 cells assessed as cell viability measured after 24 hrs by MTT assay; type: functional, cell-based; details: C6, 24 h
smiles,measurement,setting,value
Cc1cc(-c2nc3ccccc3o2)ccc1NC(=O)CN1CCN(CCCN(C)C)CC1,IC50,HT-29,15.5 µM
same,selectivity ratio,[1],2.97
same,IC50,NIH3T3,33.5 µM
same,selectivity ratio,[2],2.17
same,selectivity ratio,[3],1.52
same,IC50,HepG2 [4],2.16 µM
same,IC50,A549,22.1 µM
same,Activity,HepG2 [5],5%
same,IC50,MCF7,11.3 µM
same,Activity,HepG2 [6],77.5%
same,selectivity ratio,[7],15.5
same,inhibition,HepG2 [8],Dose-dependent effect
same,Activity,HepG2 [9],16.7%
same,Activity,HepG2 [10],0.8%
same,selectivity ratio,[11],0.86
same,IC50,C6,38.7 µM
Cc1cc(-c2nc3cc(F)ccc3o2)ccc1NC(=O)CN1CCN(CCCN(C)C)CC1,IC50,HT-29,6.7 µM
same,selectivity ratio,[1],8.45
same,IC50,NIH3T3,65.7 µM
same,selectivity ratio,[2],9.8
same,selectivity ratio,[3],5.39
same,IC50,HepG2 [4],7.15 µM
same,IC50,A549,12.2 µM
same,IC50,MCF7,7.77 µM
same,selectivity ratio,[7],9.19
same,selectivity ratio,[11],5.59
same,IC50,C6,11.8 µM
Cc1cc(-c2nc3cc(Cl)ccc3o2)ccc1NC(=O)CN1CCN(CCN(C)C)CC1,IC50,HT-29,13.2 µM
same,selectivity ratio,[1],0.49
same,IC50,NIH3T3,19.2 µM
same,selectivity ratio,[2],1.45
same,selectivity ratio,[3],0.79
same,IC50,HepG2 [4],3.88 µM
same,IC50,A549,24.4 µM
same,IC50,MCF7,39.3 µM
same,selectivity ratio,[7],4.95
same,selectivity ratio,[11],1.43
same,IC50,C6,13.5 µM
Cc1ccc2oc(-c3ccc(NC(=O)CN4CCN(CCCN(C)C)CC4)c(C)c3)nc2c1,IC50,HT-29,12.7 µM
same,selectivity ratio,[1],0.67
same,IC50,NIH3T3,13.2 µM
same,selectivity ratio,[2],1.04
same,selectivity ratio,[3],0.87
same,IC50,HepG2 [4],5.65 µM
same,IC50,A549,15.3 µM
same,IC50,MCF7,19.8 µM
same,selectivity ratio,[7],2.34
same,selectivity ratio,[11],1.81
same,IC50,C6,7.32 µM
Cc1cc(-c2nc3ccccc3o2)ccc1NC(=O)CN1CCN(CCN(C)C)CC1,IC50,HT-29,12.9 µM
same,selectivity ratio,[1],1.53
same,IC50,NIH3T3,63.5 µM
same,selectivity ratio,[2],4.94
same,selectivity ratio,[3],2.09
same,IC50,HepG2 [4],19.9 µM
same,IC50,A549,30.5 µM
same,IC50,MCF7,41.6 µM
same,selectivity ratio,[7],3.2
same,selectivity ratio,[11],1.49
same,IC50,C6,42.7 µM
CN(C)CCCN1CCN(CC(=O)Nc2ccc(-c3nc4ccccc4o3)cc2)CC1,IC50,HT-29,10.6 µM
same,selectivity ratio,[1],0.71
same,IC50,NIH3T3,16.7 µM
same,selectivity ratio,[2],1.57
same,selectivity ratio,[3],0.91
same,IC50,HepG2 [4],9.5 µM
same,IC50,A549,18.3 µM
same,IC50,MCF7,23.4 µM
same,selectivity ratio,[7],1.76
same,selectivity ratio,[11],0.39
same,IC50,C6,42.3 µM
Cc1ccc2oc(-c3ccc(NC(=O)CCl)cc3)nc2c1,IC50,HT-29,15.2 µM
same,selectivity ratio,[1],2.5
same,IC50,NIH3T3,11.6 µM
same,selectivity ratio,[2],0.76
same,selectivity ratio,[3],0.32
same,IC50,HepG2 [4],21.5 µM
same,IC50,A549,36.1 µM
same,IC50,MCF7,4.62 µM
same,selectivity ratio,[7],0.54
same,selectivity ratio,[11],2.86
same,IC50,C6,4.04 µM
Cc1ccc2oc(-c3ccc(NC(=O)CCl)c(C)c3)nc2c1,IC50,HT-29,13.8 µM
same,selectivity ratio,[1],0.07
same,IC50,NIH3T3,6.79 µM
same,selectivity ratio,[2],0.49
same,selectivity ratio,[3],0.11
same,IC50,HepG2 [4],54.8 µM
same,IC50,A549,61.8 µM
same,IC50,MCF7,96.5 µM
same,selectivity ratio,[7],0.12
same,selectivity ratio,[11],0.07
same,IC50,C6,97.6 µM
CN(C)CCCN1CCN(CC(=O)Nc2ccc(-c3nc4cc(F)ccc4o3)cc2)CC1,IC50,HT-29,2.59 µM
same,selectivity ratio,[1],1.49
same,IC50,NIH3T3,21.9 µM
same,selectivity ratio,[2],8.46
same,selectivity ratio,[3],1.8
same,IC50,HepG2 [4],9.18 µM
same,IC50,A549,12.2 µM
same,IC50,MCF7,14.8 µM
same,selectivity ratio,[7],2.39
same,selectivity ratio,[11],0.8
same,IC50,C6,27.5 µM
